# Results taken from patent publication US20120122903A1, “1-H-QUINAZOLINE-2, 4-DIONES FOR USE IN THE TREATMENT OF NEURONAL CEROID LIPOFUSCINOSIS” (priority 2009, published 2012).
# What was measured:
# OF1 mice [1] = experiment: Murine maximal electroshock test (MES test); type: in vivo, mouse; details: p.o., percentage of protected mice; for MES-Test (1 h, po) % protection @ 25: printed '@ 25' (mg/kg)
# mouse = experiment: Oral activity in vivo (audiogenic mouse test and/or MES test); details: oral administration
# Experimental: The oral bioavailability was tested using the audiogenic mouse test (Audiogenic seizures, R. L. Collins; Chapter 14, pages: 347-372. In: Experimental Models of Epilepsy; By: Pupura, Penry, Tower, Woodbury, Waiter, Raven Press, New York, 1972. Standard Book Number: 0-911216-26-X) and/or the MES test.
# OF1 mice [2] = experiment: Murine maximal electroshock test (MES test); type: in vivo, mouse; details: Mus musculus, po, pre-treatment time 1 h
# Experimental: Compounds of the invention were tested in OF1 mice using the maximal electroshock test (MES Test) described in detail by Schmutz et al., Naunyn-Schmiedeberg's Arch Pharmacol 1990, 342, 61-66. Briefly, generalized tonic-clonic convulsions of the hind extremities were induced by passing electrical current through temporal electrodes (50 Hz, 18 mA, 0.2 s). […] 30 mg/kg carbamazepine was used as a positive control; mice were classified as protected by a compound if the duration of the seizure lasted only 3 second or less. Five mice were used for each treatment condition and the percentage of protected mice was used as readout (i.e. a compound could give 0%, 20%, 40%, 60%, 80% or 100% protection). Compounds of the invention were given at a dose of 50 mg/kg, p.o., 1 hour prior to induction of convulsions (i.e. “pre-treatment time−1 h”).
# ED50 values (ED: effective dose) were calculated using GraphPad Prism, v4.02.
# 15 s after shock administration, mouse blood was collected for determination of compounds' blood exposure.
SMILES,"MES-Test (1 h, po) % protection @ 25 (OF1 mice [1])",In vivo orally active (mouse),ED50 (OF1 mice [2]),"MES-Test (1 h, po) % protection @ 20 (OF1 mice [1]; printed '@ 20' (mg/kg))"
"CS(=O)(=O)Nn1c(=O)[nH]c2cc(C(F)(F)F)c(C3CCOC3)cc2c1=O (centres unmarked) [Compound B-3, N-[2,4-Dioxo-6-(tetrahydro-furan-3-yl)-7-trifluoromethyl-1,4-dihydro-2H-quinazolin-3-yl]-methanesulfonamide]",20% @ 25^3,Yes,,
"COCCn1nccc1-c1cc2c(=O)n(NS(C)(=O)=O)c(=O)[nH]c2cc1C(C)C [Compound C-1, N-{7-Isopropyl-6-[2-(2-methoxy-ethyl)-2H-pyrazol-3-yl]-2,4-dioxo-1,4-dihydro-2H-quinazolin-3-yl}-methanesulfonamide]",40% @ 25^,yes,,
"CCc1cc2[nH]c(=O)n(NS(C)(=O)=O)c(=O)c2cc1-c1ccnn1C [Compound C-11, N-[7-Ethyl-6-(2-methyl-2H-pyrazol-3-yl)-2,4-dioxo-1,4-dihydro-2H-quinazolin-3-yl]-methanesulfonamide]",,Yes,6.1 mg/kg,
"CCc1cc2[nH]c(=O)n(NS(C)(=O)=O)c(=O)c2cc1-c1ccnn1CC [Compound C-12, N-[7-Ethyl-6-(2-ethyl-2H-pyrazol-3-yl)-2,4-dioxo-1,4-dihydro-2H-quinazolin-3-yl]-methanesulfonamide]",,Yes,42.8 mg/kg,
"Cn1nccc1-c1cc2c(=O)n(NS(C)(=O)=O)c(=O)[nH]c2cc1C(C)(F)F [Compound C-15, N-[7-(1,1-difluoro-ethyl)-6-(2-methyl-2H-pyrazol-3-yl)-2,4-dioxo-1,4-dihydro-2H-quinazolin-3-yl]-methanesulfonamide]",,Yes,,80% @ 20^
"CC(F)c1cc2[nH]c(=O)n(NS(C)(=O)=O)c(=O)c2cc1-c1ccnn1C(C)C (centres unmarked) [Compound C-17, N-[7-(1-fluoro-ethyl)-6-(2-isopropyl-2H-pyrazol-3-yl)-2,4-dioxo-1,4-dihydro-2H-quinazolin-3-yl]-methanesulfonamide]",,Yes,> 20 mg/kg,
"Cn1nccc1-c1cc2c(=O)n(NS(C)(=O)=O)c(=O)[nH]c2cc1C(F)(F)F [Compound C-18, N-[6-(2-Methyl-2H-pyrazol-3-yl)-2,4-dioxo-7-trifluoromethyl-1,4-dihydro-2H-quinazolin-3-yl]-methanesulfonamide]",,Yes,14.8 mg/kg,
